# Like-named read-outs stand apart in the source and are kept apart here.
# Biological target: T1, hM5 (Homo sapiens, UniProt P08912)
# T1 construct: expressed in transfected cells
# T1 sequence (P08912 1-532): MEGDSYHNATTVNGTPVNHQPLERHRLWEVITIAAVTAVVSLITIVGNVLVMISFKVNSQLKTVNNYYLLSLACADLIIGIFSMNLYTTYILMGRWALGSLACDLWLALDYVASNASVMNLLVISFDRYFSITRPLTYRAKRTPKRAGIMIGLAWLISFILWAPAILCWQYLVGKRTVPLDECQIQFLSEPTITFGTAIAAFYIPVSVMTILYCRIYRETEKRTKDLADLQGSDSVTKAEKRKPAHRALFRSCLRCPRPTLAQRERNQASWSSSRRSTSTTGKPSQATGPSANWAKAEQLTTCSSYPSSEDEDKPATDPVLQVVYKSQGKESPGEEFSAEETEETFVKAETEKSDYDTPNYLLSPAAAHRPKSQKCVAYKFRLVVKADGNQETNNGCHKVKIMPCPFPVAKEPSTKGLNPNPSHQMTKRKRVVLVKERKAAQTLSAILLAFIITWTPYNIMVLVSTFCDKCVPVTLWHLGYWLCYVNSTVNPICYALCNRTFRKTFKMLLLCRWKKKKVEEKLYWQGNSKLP
# Assay: Calcium mobilization concentration-response (IC50 vs EC80 acetylcholine), CHO hM5
# Format: cell-based
# Details: CELL LINE hM5, read-out: IC50
# In short: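 IC50 values derive from percent maximal acetylcholine response after an EC80 ACh addition, measured as kinetic calcium fluorescence (static ratio, max−min). Test compounds were added 140 s before agonist. Cells: stable hM5-CHO in HEPES-buffered HBSS with 2.5 mM probenecid, pH 7.4; ≥3 independent triplicate determinations.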
# [1] = calcium mobilization, EC80 acetylcholine addition
Structure (SMILES),IC50 [1] [nM],IC50 (vs EC80 acetylcholine) [nM]
"Cc1cc2nccnc2cc1C1=CCN(S(=O)(=O)c2cnn(C)c2Cl)CC1 [Compound 355, 6-(1-((5-chloro-1-methyl-1H-pyrazol-4-yl)sulfonyl)-1,2,3,6-tetrahydropyridin-4-yl)-7-methylquinoxaline]",157,
"Cc1cc2ncccc2cc1C1CCN(S(=O)(=O)c2cnc3n2CCCC3)CC1 [Compound 450, 7-methyl-6-(1-((5,6,7,8-tetrahydroimidazo[1,2-a]pyridin-3-yl)sulfonyl)piperidin-4-yl)quinoline]",,39
"Cc1ncc(S(=O)(=O)N2CCC(c3cnc(N(C)C)cc3C)CC2)o1 [Compound 564, N,N,4-trimethyl-5-(1-((2-methyloxazol-5-yl)sulfonyl)piperidin-4-yl)pyridin-2-amine]",,94
"Cc1nc(C)c(S(=O)(=O)N2CCC(c3cn4ncnc4cc3C(F)(F)F)CC2)s1 [Compound 279, 2,4-dimethyl-5-((4-(7-(trifluoromethyl)-[1,2,4]triazolo[1,5-a]pyridin-6-yl)piperidin-1-yl)sulfonyl)thiazole]",> 10000,
"Cc1cc2nccn2nc1C1CCN(S(=O)(=O)c2ccc3c(c2)CCCO3)CC1 [Compound 43, 6-(1-(chroman-6-ylsulfonyl)piperidin-4-yl)-7-methylimidazo[1,2-b]pyridazine]",3600,
"Cc1cn2cc(C3CCN(S(=O)(=O)c4ccc5c(c4)CCO5)CC3)ncc2n1 [Compound 18, 6-(1-((2,3-dihydrobenzofuran-5-yl)sulfonyl)piperidin-4-yl)-2-methylimidazo[1,2-a]pyrazine]",> 10000,
"Cc1cc2c(cc1C1CCN(S(=O)(=O)c3cnn4c3CCC4)CC1)OCO2 [Compound 374, 3-((4-(6-methylbenzo[d][1,3]dioxol-5-yl)piperidin-1-yl)sulfonyl)-5,6-dihydro-4H-pyrrolo[1,2-b]pyrazole]",7,
"Cc1ncc(S(=O)(=O)N2CCC(c3nn4ncnc4cc3C)CC2)o1 [Compound 488, 2-methyl-5-((4-(7-methyl-[1,2,4]triazolo[1,5-b]pyridazin-6-yl)piperidin-1-yl)sulfonyl)oxazole]",,6350
"Cc1cc2nccn2nc1C1CCN(S(=O)(=O)c2ccc3c(c2)CCO3)CC1 [Compound 17, 6-(1-((2,3-dihydrobenzofuran-5-yl)sulfonyl)piperidin-4-yl)-7-methylimidazo[1,2-b]pyridazine]",839,
"Cc1cc2nccn2nc1C1=CCN(S(=O)(=O)c2ccc3c(c2)CCO3)CC1 [Compound 34, 6-(1-((2,3-dihydrobenzofuran-5-yl)sulfonyl)-1,2,3,6-tetrahydropyridin-4-yl)-7-methylimidazo[1,2-b]pyridazine]",> 10000,
"Cc1cc2nccn2nc1C1CCN(S(=O)(=O)c2ccc3c(c2)N(C)CCO3)CC1 [Compound 250, 4-methyl-6-((4-(7-methylimidazo[1,2-b]pyridazin-6-yl)piperidin-1-yl)sulfonyl)-3,4-dihydro-2H-benzo[b][1,4]oxazine]",1500,
"Cc1cc2ncnn2nc1C1CCN(S(=O)(=O)c2cnc(Cl)s2)CC1 [Compound 536, 2-chloro-5-((4-(7-methyl-[1,2,4]triazolo[1,5-b]pyridazin-6-yl)piperidin-1-yl)sulfonyl)thiazole]",,9510
"O=S(=O)(c1ccc2ncsc2c1)N1CCC(c2cc3[nH]ccc3cn2)CC1 [Compound 30, 6-((4-(1H-pyrrolo[3,2-c]pyridin-6-yl)piperidin-1-yl)sulfonyl)benzo[d]thiazole]",> 10000,
"Cc1cc2ncnn2nc1C1CCN(S(=O)(=O)c2cnn3c2CCC3)CC1 [Compound 187, 6-(1-((5,6-dihydro-4H-pyrrolo[1,2-b]pyrazol-3-yl)sulfonyl)piperidin-4-yl)-7-methyl-[1,2,4]triazolo[1,5-b]pyridazine]",23,
"Cc1cc(C#N)cnc1C1CCN(S(=O)(=O)c2cnn(C)c2C)CC1 [Compound 217, 6-(1-((1,5-Dimethyl-1H-pyrazol-4-yl)sulfonyl)piperidin-4-yl)-5-methylnicotinonitrile]",> 10000,
"COc1cc2ncnn2cc1C1CCN(S(=O)(=O)c2cc3c(cc2F)OCC3)CC1 [Compound 81, 6-(1-((6-fluoro-2,3-dihydrobenzofuran-5-yl)sulfonyl)piperidin-4-yl)-7-methoxy-[1,2,4]triazolo[1,5-a]pyridine]",> 10000,
"O=S(=O)(c1ccc2c(c1)CCO2)N1CCC(c2ccncc2)CC1 [Compound 2, 4-(1-((2,3-dihydrobenzofuran-5-yl)sulfonyl)piperidin-4-yl)pyridine]",> 10000,
"Cc1cc2nccnc2cc1C1CCN(S(=O)(=O)c2cnn3c2OCCC3)CC1 [Compound 426, 3-((4-(7-methylquinoxalin-6-yl)piperidin-1-yl)sulfonyl)-6,7-dihydro-5H-pyrazolo[5,1-b][1,3]oxazine]",,26
"Cn1ncc(S(=O)(=O)N2CCC(c3c(C(F)(F)F)nc4n3CCCC4)CC2)c1Cl [Compound 555, 3-(1-((5-chloro-1-methyl-1H-pyrazol-4-yl)sulfonyl)piperidin-4-yl)-2-(trifluoromethyl)-5,6,7,8-tetrahydroimidazo[1,2-a]pyridine]",,> 10000
Cn1ncc(S(=O)(=O)N2CCC(c3cc(-c4ccco4)n[nH]3)CC2)c1Cl [Compound 587],,1460
"O=S(=O)(c1ccc2c(c1)CCO2)N1CCC(c2ccc3ncnn3c2)CC1 [Compound 60, 6-(1-((2,3-dihydrobenzofuran-5-yl)sulfonyl)piperidin-4-yl)-[1,2,4]triazolo[1,5-a]pyridine]",> 10000,
"Cn1cc(S(=O)(=O)N2CCC(c3cn4ncnc4cc3C(F)(F)F)CC2)nn1 [Compound 563, 6-(1-((1-methyl-1H-1,2,3-triazol-4-yl)sulfonyl)piperidin-4-yl)-7-(trifluoromethyl)-[1,2,4]triazolo[1,5-a]pyridine]",,234
"Cc1cc(C(F)(F)F)ncc1C1CCN(S(=O)(=O)c2ccc3c(c2)CCO3)CC1 [Compound 399, 5-(1-((2,3-dihydrobenzofuran-5-yl)sulfonyl)piperidin-4-yl)-4-methyl-2-(trifluoromethyl)pyridine]",,3840

# Results, then the molecule that gave them:
IC50 [1] [nM],IC50 (vs EC80 acetylcholine) [nM],Structure (SMILES)
,59,"Cn1ncc(S(=O)(=O)N2CCC(c3cn4ncnc4cc3C(F)(F)F)CC2)c1C#N [Compound 409, 1-methyl-4-((4-(7-(trifluoromethyl)-[1,2,4]triazolo[1,5-a]pyridin-6-yl)piperidin-1-yl)sulfonyl)-1H-pyrazole-5-carbonitrile]"
,736,"Cc1cc2ncnn2cc1C1CCN(S(=O)(=O)c2cnn(C)c2CNC(=O)c2ccccn2)CC1 [Compound 554, N-((1-Methyl-4-((4-(7-methyl-[1,2,4]triazolol[1,5-a]pyridin-6-yl)piperidin-1-yl)sulfonyl)-1H-pyrazol-5-yl)methyl)picolinamide]"
,234,"Cc1nsc(S(=O)(=O)N2CCC(c3cn4ncnc4cc3Cl)CC2)n1 [Compound 608, 5-((4-(7-Chloro-[1,2,4]triazolo[1,5-a]pyridin-6-yl)piperidin-1-yl)sulfonyl)-3-methyl-1,2,4-thiadiazole]"
,169,"O=S(=O)(c1cnn2ccccc12)N1CCC(c2cn3ncnc3cc2F)CC1 [Compound 521, 7-fluoro-6-(1-(pyrazolo[1,5-a]pyridin-3-ylsulfonyl)piperidin-4-yl)-[1,2,4]triazolo[1,5-a]pyridine]"
21,,"Cc1c(C2CCN(S(=O)(=O)c3cnn(C)c3C)CC2)cn2ncnc2c1F [Compound 264, 6-(1-((1,5-dimethyl-1H-pyrazol-4-yl)sulfonyl)piperidin-4-yl)-8-fluoro-7-methyl-[1,2,4]triazolo[1,5-a]pyridine]"
,102,"O=S(=O)(c1cnn2ccccc12)N1CCC(c2cn3ncnc3cc2C(F)(F)F)CC1 [Compound 511, 6-(1-(pyrazolo[1,5-a]pyridin-3-ylsulfonyl)piperidin-4-yl)-7-(trifluoromethyl)-[1,2,4]triazolo[1,5-a]pyridine]"
,76,"Cc1ncc(S(=O)(=O)N2CCC(c3cn4ncnc4cc3C)CC2)o1 [Compound 492, 2-methyl-5-((4-(7-methyl-[1,2,4]triazolo[1,5-a]pyridin-6-yl)piperidin-1-yl)sulfonyl)oxazole]"
89,,"[2H]C([2H])([2H])n1nc(Cl)c(S(=O)(=O)N2CCC(c3cn4ncnc4cc3F)CC2)c1C [Compound 257, 6-(1-((3-chloro-5-methyl-1-(methyl-d3)-1H-pyrazol-4-yl)sulfonyl)piperidin-4-yl)-7-fluoro-[1,2,4]triazolo[1,5-a]pyridine]"
62,,"Cc1cc2ncnn2cc1C1CCN(S(=O)(=O)c2cnn(C(F)F)c2C)CC1 [Compound 151, 6-(1-((1-(difluoromethyl)-5-methyl-1H-pyrazol-4-yl)sulfonyl)piperidin-4-yl)-7-methyl-[1,2,4]triazolo[1,5-a]pyridine]"
,> 10000,"COCC(=O)NCc1c(S(=O)(=O)N2CCC(c3cn4ncnc4cc3F)CC2)cnn1C [Compound 553, N-((4-((4-(7-fluoro-[1,2,4]triazoto[1,5-a]pyridin-6-yl)piperidin-1-yl)sulfonyl)-1-methyl-1H-pyrazol-5-yl)methyl)-2-methoxyacetamide]"
,115,"CCc1cc2ncnn2cc1C1CCN(S(=O)(=O)c2cnc3sccn23)CC1 [Compound 512, 5-((4-(7-ethyl-[1,2,4]triazolo[1,5-a]pyridin-6-yl)piperidin-1-yl)sulfonyl)imidazo[2,1-b]thiazole]"
